The record followed here is US8357407B2, “Agent for cutaneous photoprotection against UVA/UVB rays” (priority 2009, dated 2013).

The nature of series [1]: UV/VIS comparative spectral absorption. Format: physicochemical. From the text: The AEDA was subjected to a UV/VIS spectral analysis at 200-400 nm to determine the peak absorbency of the compounds with UV absorbing characteristics present in the AEDA. A SHIMADZU UV-160 photospectrometer was used for this purpose, with the samples diluted in ethanol until a visible reading in the spectrum was obtained.
The AEDA absorption spectra show maximum absorption at wavelengths under 240 nm. In the band from approximately 250 nm to 350 nm. AEDA offers stable absorbency between 0.75 and 1.5 UA that blocks a significant amount of UVC, UVB and the more energetic portion of UVA light. Part of its effects may therefore be due to a screen effect that prevents the luminous radiation from reaching the skin.
The first two are located before the UVC band, and the third appears above 285 nm and extends to almost 340 nm. This behavior is typical of the polyphenols present in numerous vegetals, which provide and an effective screen effect that protects plants from solar light. When comparing the concentrations required to reach similar absorbencies, it can be observed that ferulic acid develops its effective blocking ability at 50 μg/ml, whereas with AEDA, 500 μg/ml produce a block equivalent to 50% of that obtained with 50 μg/ml of ferulic acid. To produce similar blocking intensities, the necessary concentrations of AEDA must be 10 to 50 times higher than with ferulic acid.

Series [2] has as its system rat skin under UVB radiation. The experiment in a line: Second test: UVB-induced dermal erythema and sunburnt cells in rat skin. Format: in vivo. On the set-up: key to presence or absence of erythema or its manifestations in the treated area, per animal: presence (+); absence (−). The protocol: They were acclimatized to the location where the tests were carried out during 7 days after being received. […] The animals were fed ad libitum with a standard rodent diet and running water during this period and during the experimental period. […] The products to be tested were applied directly on the skin as a gel. The test was conducted following the method described by Winder et al. “A Study of Pharmacological Influences of Ultraviolet Erythema in Guinea Pigs”. Arch. Int Pharmacodyn, 116: 261-292. 1958, and other authors such as Wendy, J et al. “The Local Antinociceptive and Topical Anti-inflammatory Effects of Propyl Gallate in Rodents”. Br. J. Pharmacol, 58: 573-581. 1976, and […]. et al. “Protective Effects of Silymarin Against Photocarcinogenesis in a Mouse Skin Model”. J. Natl. Cancer Inst. 89: 556-65. 1997, with slight modifications. The animals were shaved clean six days before the test to eliminate all traces of hair, leaving the skin on their backs completely bare. A morning (10:00 h) and evening (20:00 h) dosage regime for the substance to be tested or for the standard commenced on the first day of the test on a randomized and blind basis lasting 3 days. On the third day, after applying the corresponding morning treatments, the animals were placed and secured in the equipment's exposure platform. The animals were then placed 8 cm from the 4*40 W ultraviolet light source emitting at a fundamental frequency of 313 nm and in a range from approximately 290 to 350 nm, with an anti-UVC filter. The exposure was maintained until all animals received a total dosage of approximately 2.5 kJ/m2, with the irradiation dosis determined by means of an ultraviolet light detector. The backs of the animals were photographed 24 hours after the exposure, and the animals were sacrificed by cervical dislocation. The back skin was removed and a 2×2 cm fragment located under the area were the substance to be tested was applied was placed and maintained for 6 hours in a jar with 10% tamponated formalin, before initiating the paraffin inclusion process and preparation for the histological study. The preparations were observed under an optical microscope and the epidermal-dermal space was photographed at ×100 magnification in 5 different locations for each preparation. A count of sunburnt cells was made for each photograph, considering cells as sunburnt if they had hypereosinophilic cytoplasm with small dark and irregular dense nuclei different than those of its neighbors. The evaluation of the erythema was made on a positive/negative basis, obtaining the percentage of protected animals. The number of hypereosinophilic cells with pyknotic nuclei (sunburnt) was counted in the photographic fields for each of the five different sectors in each histological preparation. The sum of the five counts was considered as the value for each animal. […] The statistical significance of the differences was evaluated by means of non-parametric tests, such as the Fisher Test or the χ^2 (Chi Squared).

The mark [3] stands for this setting: EDA 300 mg/ml or ferulic acid 0.5% topical, p < 0.01 versus Vehicle.

SMILES strings stand for the structures. Where “and” joins values, the source holds several entries; their conditions need not be identical. Identical values can stand only once. Marks after values point to notes of the source that are not given here.

On to `COc1cc(/C=C/C(=O)O)ccc1O` [Ferulic Acid, ferulic acid], for which, in series [1], the “concentration at which effective UV blocking ability develops” value was 50 µg/mL. Also, the “number of sunburnt cells, Average ± S.E.M.” value in series [2] (10 animals per group, EDA 300 mg/ml or ferulic acid 0.5% topical, positive control vehicle 32.7 ± 1.52) turned out to be 5.2 ± 1.08. In addition, in series [2] (AEDA 300 mg/ml or ferulic acid 0.5% topical, histology), the “number of sunburnt cells (in words)” value was “small”. Besides, the “erythema, % inhibition versus Positive Control Vehicle (suppression, subjective criteria)” value in series [2] (EDA 300 mg/ml or ferulic acid 0.5% topical) came to 90%. Further, in series [2] (setting [3]), the “erythema, % Protected animals” value was determined as 70%* and the “sunburnt cells, % inhibition versus Positive Control Vehicle” value was found to be 84.1%*. Besides, in series [2] (EDA 300 mg/ml or ferulic acid 0.5% topical, p < 0.01 versus Vehicle, listed as ferulic acid), the “erythema, % Protected animals” value turned out to be 70%. For the same compound, in series [2] (individual animals 1-10, EDA 300 mg/ml or ferulic acid 0.5% topical, 24 hours after UVB exposure), the “presence or absence of erythema or its manifestations in the treated area, per animal” value is “− (6×) and + (3×)”. The “number of sunburnt cells per animal (sum of five counts)” value in series [2] (individual animals 1-10, EDA gel 300 mg/ml or ferulic acid gel 0.5%, 100 μl topical twice daily for 3 days, UVB approx. 2.5 kJ/m2, 24 hours after exposure) is 8 and 4 (2×) and 3 (2×) and 2 and 10 and 0 and 11 and 7.
